Assay results taken from ChEMBL document CHEMBL2413073, “Efficient construction of novel D-ring modified steroidal dienamides and their cytotoxic activities” (Eur J Med Chem, 2013).
In brackets after ≈: the same amount, converted by molar mass.

What was measured:
MGC-803 [1] = experiment: Cell cycle arrest in human MGC803 cells assessed as accumulation at G2/M phase at 8 uM after 24 hrs by propidium iodide staining-based flow cytometry (reference value: 20.41%); assay type: functional
MGC-803 [2] = experiment: Cell cycle arrest in human MGC803 cells assessed as accumulation at G2/M phase at 4 uM after 24 hrs by propidium iodide staining-based flow cytometry (reference value: 20.41%); assay type: functional
MGC-803 [3] = experiment: Cell cycle arrest in human MGC803 cells assessed as accumulation at G2/M phase at 2 uM after 24 hrs by propidium iodide staining-based flow cytometry (reference value: 20.41%); assay type: functional
MGC-803 [4] = experiment: Cell cycle arrest in human MGC803 cells assessed as accumulation at S phase at 8 uM after 24 hrs by propidium iodide staining-based flow cytometry (reference value: 26.67%); assay type: functional
MGC-803 [5] = experiment: Cell cycle arrest in human MGC803 cells assessed as accumulation at S phase at 4 uM after 24 hrs by propidium iodide staining-based flow cytometry (reference value: 26.67%); assay type: functional
MGC-803 [6] = experiment: Cell cycle arrest in human MGC803 cells assessed as accumulation at S phase at 2 uM after 24 hrs by propidium iodide staining-based flow cytometry (reference value: 26.67%); assay type: functional
MGC-803 [7] = experiment: Cell cycle arrest in human MGC803 cells assessed as accumulation at G0/G1 phase at 8 uM after 24 hrs by propidium iodide staining-based flow cytometry (reference value: 43.45%); assay type: functional
MGC-803 [8] = experiment: Cell cycle arrest in human MGC803 cells assessed as accumulation at G0/G1 phase at 4 uM after 24 hrs by propidium iodide staining-based flow cytometry (reference value: 43.45%); assay type: functional
MGC-803 [9] = experiment: Cell cycle arrest in human MGC803 cells assessed as accumulation at G0/G1 phase at 2 uM after 24 hrs by propidium iodide staining-based flow cytometry (reference value: 43.45%); assay type: functional
MGC-803 [10] = experiment: Cell cycle arrest in human MGC803 cells assessed as accumulation at G2/M phase after 24 hrs by propidium iodide staining-based flow cytometry; assay type: functional
MGC-803 [11] = experiment: Induction of apoptosis in human MGC803 cells assessed as necrotic cells at 8 uM after 24 hrs by AnnexinV/FITC-propidium iodide staining-based flow cytometry (reference value: 0.2%); assay type: functional
MGC-803 [12] = experiment: Induction of apoptosis in human MGC803 cells assessed as necrotic cells at 4 uM after 24 hrs by AnnexinV/FITC-propidium iodide staining-based flow cytometry (reference value: 0.2%); assay type: functional
MGC-803 [13] = experiment: Induction of apoptosis in human MGC803 cells assessed as necrotic cells at 2 uM after 24 hrs by AnnexinV/FITC-propidium iodide staining-based flow cytometry (reference value: 0.2%); assay type: functional
MGC-803 [14] = experiment: Induction of apoptosis in human MGC803 cells assessed as late apoptotic cells at 8 uM after 24 hrs by AnnexinV/FITC-propidium iodide staining-based flow cytometry (reference value: 1.2%); assay type: functional
MGC-803 [15] = experiment: Induction of apoptosis in human MGC803 cells assessed as late apoptotic cells at 4 uM after 24 hrs by AnnexinV/FITC-propidium iodide staining-based flow cytometry (reference value: 1.2%); assay type: functional
MGC-803 [16] = experiment: Induction of apoptosis in human MGC803 cells assessed as late apoptotic cells at 2 uM after 24 hrs by AnnexinV/FITC-propidium iodide staining-based flow cytometry (reference value: 1.2%); assay type: functional
MGC-803 [17] = experiment: Induction of apoptosis in human MGC803 cells assessed as early apoptotic cells at 8 uM after 24 hrs by AnnexinV/FITC-propidium iodide staining-based flow cytometry (reference value: 8.9%); assay type: functional
MGC-803 [18] = experiment: Induction of apoptosis in human MGC803 cells assessed as early apoptotic cells at 4 uM after 24 hrs by AnnexinV/FITC-propidium iodide staining-based flow cytometry (reference value: 8.9%); assay type: functional
MGC-803 [19] = experiment: Induction of apoptosis in human MGC803 cells assessed as early apoptotic cells at 2 uM after 24 hrs by AnnexinV/FITC-propidium iodide staining-based flow cytometry (reference value: 8.9%); assay type: functional
MGC-803 [20] = experiment: Induction of apoptosis in human MGC803 cells assessed as viable cells at 8 uM after 24 hrs by AnnexinV/FITC-propidium iodide staining-based flow cytometry (reference value: 89.6%); assay type: functional; conditions: MGC-803, 24 h, read-out: Activity
MGC-803 [21] = experiment: Induction of apoptosis in human MGC803 cells assessed as viable cells at 4 uM after 24 hrs by AnnexinV/FITC-propidium iodide staining-based flow cytometry (reference value: 89.6%); assay type: functional; conditions: MGC-803, 24 h, read-out: Activity
MGC-803 [22] = experiment: Induction of apoptosis in human MGC803 cells assessed as viable cells at 2 uM after 24 hrs by AnnexinV/FITC-propidium iodide staining-based flow cytometry (reference value: 89.6%); assay type: functional; conditions: MGC-803, 24 h, read-out: Activity
SMMC-7721 [23] = experiment: Cytotoxicity against human SMMC7721 cells after 72 hrs by MTT assay; assay type: functional, cell-based; conditions: SMMC-7721, 72 h
PC-3 = experiment: Cytotoxicity against human PC3 cells after 72 hrs by MTT assay; assay type: functional, cell-based; conditions: PC-3, 72 h
MGC-803 [24] = experiment: Cytotoxicity against human MGC803 cells after 72 hrs by MTT assay; assay type: functional, cell-based; conditions: MGC-803, 72 h
[25] = Cytotoxicity against human EC109 cells after 72 hrs by MTT assay; assay type: functional, cell-based; conditions: ECa-109, 72 h
MCF7 = experiment: cells; conditions: Homo sapiens, MCF7, 72 h
Description: Cytotoxicity against human MCF7 cells after 72 hrs by MTT assay

MGC-803 [26] = experiment: Ratio of 5-fluorouracil IC50 to compound IC50 for human MGC803 cells; assay type: functional
SMMC-7721 [27] = experiment: Ratio of 5-fluorouracil IC50 to compound IC50 for human SMMC7721 cells; assay type: functional
[28] = Cytotoxicity against human MEL28 cells; assay type: functional, cell-based; conditions: SK-MEL-28
A549 = experiment: Cytotoxicity against human A549 cells; assay type: functional, cell-based
HT-29 = experiment: Cytotoxicity against human HT-29 cells; assay type: functional, cell-based
P388 = experiment: Cytotoxicity against mouse P388 cells; assay type: functional, cell-based

Structure (SMILES): CC(=O)O[C@H]1CC[C@@]2(C)C(=CC[C@@H]3[C@@H]2CC[C@]2(C)C(=C(/C#N)C(N)=O)/C(=C/c4ccc(Cl)cc4)C[C@@H]32)C1
- Activity (MGC-803 [1]): 56.91%
- Activity (MGC-803 [2]): 49.43%
- Activity (MGC-803 [3]): 33.68%
- Activity (MGC-803 [4]): 19.09%
- Activity (MGC-803 [5]): 19.94%
- Activity (MGC-803 [6]): 15.68%
- Activity (MGC-803 [7]): 21.6%
- Activity (MGC-803 [8]): 28.84%
- Activity (MGC-803 [9]): 48.61%
- Activity (MGC-803 [10]): Dose-dependent effect
- Activity (MGC-803 [11]): 0.1%
- Activity (MGC-803 [12]): 2%
- Activity (MGC-803 [13]): 0.5%
- Activity (MGC-803 [14]): 17.1%
- Activity (MGC-803 [15]): 9.4%
- Activity (MGC-803 [16]): 4.4%
- Activity (MGC-803 [17]): 80.9%
- Activity (MGC-803 [18]): 35.9%
- Activity (MGC-803 [19]): 18.7%
- viability at 8 µM (MGC-803 [20]): 1.9%
- viability at 4 µM (MGC-803 [21]): 52.7%
- viability at 2 µM (MGC-803 [22]): 76.3%
- IC50 (SMMC-7721 [23]): 3.9 µM
- IC50 (PC-3): 11.5 µM
- IC50 (MGC-803 [24]): 1.54 µM
- IC50 [25]: 5.56 µM
- IC50 (MCF7): 3.85 µM

Structure (SMILES): COc1cccc(/C=C2\C[C@H]3[C@@H]4CC=C5C[C@@H](OC(C)=O)CC[C@]5(C)[C@H]4CC[C@]3(C)\C2=C(\C#N)C(N)=O)c1
- IC50 (SMMC-7721 [23]): 11.5 µM
- IC50 (PC-3): 13 µM
- IC50 (MGC-803 [24]): 2.19 µM
- IC50 [25]: 7.04 µM
- IC50 (MCF7): 8.36 µM

Structure (SMILES): CC(=O)O[C@H]1CC[C@@]2(C)C(=CC[C@@H]3[C@@H]2CC[C@]2(C)C(=C(/C#N)C(N)=O)/C(=C/c4cccs4)C[C@@H]32)C1
- Ratio IC50 (MGC-803 [26]): 45
- IC50 (SMMC-7721 [23]): 20.4 µM
- IC50 (PC-3): 20.4 µM
- IC50 (MGC-803 [24]): 0.15 µM
- IC50 [25]: 20.3 µM
- IC50 (MCF7): 22.8 µM

Structure (SMILES): C[C@]12CC[C@H](O)CC1=CC[C@@H]1[C@@H]2CC[C@]2(C)C(=C(/C#N)C(N)=O)/C(=C/c3ccc(F)cc3)C[C@@H]12
- IC50 (SMMC-7721 [23]): 3.34 µM
- IC50 (PC-3): 14.6 µM
- IC50 (MGC-803 [24]): 5.67 µM
- IC50 [25]: 8.69 µM
- IC50 (MCF7): 5.92 µM

Structure (SMILES): CC(=O)O[C@H]1CC[C@@]2(C)C(=CC[C@@H]3[C@@H]2CC[C@]2(C)C(=C(/C#N)C(N)=O)/C(=C/c4ccc(C)cc4)C[C@@H]32)C1
- IC50 (SMMC-7721 [23]): 18.6 µM
- IC50 (PC-3): 22.9 µM
- IC50 (MGC-803 [24]): 8.1 µM
- IC50 [25]: 12 µM
- IC50 (MCF7): 6.35 µM

Structure (SMILES): C[C@]12CC[C@H](O)CC1=CC[C@@H]1[C@@H]2CC[C@]2(C)C(=C(/C#N)C(N)=O)/C(=C/c3ccccc3F)C[C@@H]12
- Ratio IC50 (SMMC-7721 [27]): 5
- IC50 (SMMC-7721 [23]): 1.9 µM
- IC50 (PC-3): 13.3 µM
- IC50 (MGC-803 [24]): 2.69 µM
- IC50 [25]: 14.6 µM
- IC50 (MCF7): 6.58 µM

Structure (SMILES): CC(=O)O[C@H]1CC[C@@]2(C)C(=CC[C@@H]3[C@@H]2CC[C@]2(C)C(=C(/C#N)C(N)=O)/C(=C/c4ccccc4F)C[C@@H]32)C1
- IC50 (SMMC-7721 [23]): 15.4 µM
- IC50 (PC-3): 11.4 µM
- IC50 (MGC-803 [24]): 2.99 µM
- IC50 [25]: 15.6 µM
- IC50 (MCF7): 4.66 µM

Structure (SMILES): CC(=O)O[C@H]1CC[C@@]2(C)C(=CC[C@@H]3[C@@H]2CC[C@]2(C)C(=C(/C#N)C(N)=O)/C(=C/c4ccc(Cl)cc4Cl)C[C@@H]32)C1
- IC50 (SMMC-7721 [23]): 5.04 µM
- IC50 (PC-3): 24.3 µM
- IC50 (MGC-803 [24]): 7.38 µM
- IC50 [25]: 5.24 µM
- IC50 (MCF7): 3.98 µM

Structure (SMILES): C=C1C[C@@H]2C/C=C/C(=O)C/C(C)=C\C=C\C(=O)O[C@H]([C@H](O)NC(=O)/C=C\C=C\C)C/C(C)=C/[C@H](C1)O2 [ZAMPANOLIDE]
- IC50 [28]: 1 ng/mL (≈ 2.02 nM)
- IC50 (A549): 1 ng/mL (≈ 2.02 nM)
- IC50 (HT-29): 1 ng/mL (≈ 2.02 nM)
- IC50 (P388): 1 ng/mL (≈ 2.02 nM)

Structure (SMILES): C[C@]12CC[C@H](O)CC1=CC[C@@H]1[C@@H]2CC[C@]2(C)C(=C(/C#N)C(N)=O)/C(=C/c3ccccc3Cl)C[C@@H]12
- IC50 (SMMC-7721 [23]): 3.63 µM
- IC50 (PC-3): 16.9 µM
- IC50 (MGC-803 [24]): 5.13 µM
- IC50 [25]: 13.2 µM
- IC50 (MCF7): 5.34 µM

Structure (SMILES): CC(=O)O[C@H]1CC[C@@]2(C)C(=CC[C@@H]3[C@@H]2CC[C@]2(C)C(=C(/C#N)C(N)=O)/C(=C/c4ccc(Cl)c(Cl)c4)C[C@@H]32)C1
- IC50 (SMMC-7721 [23]): 2.55 µM
- IC50 (PC-3): 8.18 µM
- IC50 (MGC-803 [24]): 3.2 µM
- IC50 [25]: 4.37 µM
- IC50 (MCF7): 2.21 µM

Structure (SMILES): CC(=O)O[C@H]1CC[C@@]2(C)C(=CC[C@@H]3[C@@H]2CC[C@]2(C)C(=C(/C#N)C(N)=O)/C(=C/c4ccc(F)cc4)C[C@@H]32)C1
- IC50 (SMMC-7721 [23]): 5.9 µM
- IC50 (PC-3): 9.17 µM
- IC50 (MGC-803 [24]): 3.11 µM
- IC50 [25]: 4.78 µM
- IC50 (MCF7): 3.67 µM

Structure (SMILES): CC(=O)O[C@H]1CC[C@@]2(C)C(=CC[C@@H]3[C@@H]2CC[C@]2(C)C(=C(/C#N)C(N)=O)/C(=C/c4ccco4)C[C@@H]32)C1
- Ratio IC50 (MGC-803 [26]): 57
- IC50 (SMMC-7721 [23]): 22.9 µM
- IC50 (PC-3): 23.4 µM
- IC50 (MGC-803 [24]): 0.12 µM
- IC50 [25]: 39.4 µM
- IC50 (MCF7): 39.4 µM
